Laboratory results from patent US20220168325A1, “METHODS TO PROMOTE CEREBRAL BLOOD FLOW IN THE BRAIN” (THE UNIVERSITY OF VERMONT, priority 2019, published 2022).
Structures can show the parent of a compound that is named as a salt. Where two headings read alike, the source gives them in different places.

Legend:
[1] = system: capillary-to-arteriole electrical signaling; assay: Ex vivo CaPA preparation from transgenic mice: arteriolar tone and dilation to capillary 10 mM K+; conditions: for Arteriolar dilation in response to capillary stimulation with 10 mM K+: 1 mM 4-AP, 30 ng/mL HB-EGF bath, or exogenous PIP2 bath; for Myogenic tone of arteriolar segment: 1 mM 4-AP or 30 ng/mL HB-EGF
[2] = target: T1, Kir2.1 channel (Mus musculus, UniProt P35561); assay: Patch-clamp recording of Kir2.1 currents in freshly isolated brain capillary endothelial cells (cECs); conditions: for Effect of simultaneous PKC and IP3R/Ca2+ block on PGE2-mediated suppression of Kir2.1 currents: 1 μM Gö6976 + 30 μM CPA bath-applied + 5.4 mM BAPTA dialyzed together; for Effect of simultaneous PKC and IP3R/Ca2+ block on PGE2-mediated suppression of Kir2.1 currents / Effect on PGE2-induced reduction of Kir2.1 current: PGE2 2 μM, 0 mM Mg-ATP; for Effect on PGE2-induced reduction of Kir2.1 current: diC8-PIP2 10 μM dialyzed, U73122 10 μM bath, Gö6976 1 μM bath, BAPTA 5.4 mM dialyzed; for Decline of Kir2.1 currents over 15 min: in pipette: 1 mM Mg-ATP, 1 mM Mg-ATP-γ-S, or 10 μM diC8-PIP2 with 0 mM Mg-ATP
T1 sequence (P35561 1-428): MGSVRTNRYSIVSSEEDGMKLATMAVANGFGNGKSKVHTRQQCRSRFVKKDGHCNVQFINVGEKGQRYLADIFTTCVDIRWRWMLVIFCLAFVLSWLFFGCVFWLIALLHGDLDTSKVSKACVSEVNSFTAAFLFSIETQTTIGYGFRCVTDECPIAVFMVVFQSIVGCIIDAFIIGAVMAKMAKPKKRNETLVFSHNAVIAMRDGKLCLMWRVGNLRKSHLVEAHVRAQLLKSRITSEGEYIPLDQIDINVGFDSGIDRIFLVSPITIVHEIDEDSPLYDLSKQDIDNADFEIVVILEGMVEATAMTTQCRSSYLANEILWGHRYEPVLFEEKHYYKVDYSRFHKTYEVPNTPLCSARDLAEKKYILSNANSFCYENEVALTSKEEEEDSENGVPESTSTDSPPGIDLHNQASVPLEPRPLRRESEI

[3] = system: functional hyperemia; assay: Whisker stimulation-induced functional hyperemia in vivo (laser Doppler flowmetry, somatosensory cortex); set-up: species or system TgNotch3^WT and TgNotch3^R169C mice; conditions: for CBF responses to whisker stimulation: 20 nM HB-EGF perfused over cranial window
[4] = system: K+-evoked capillary hyperemia; assay: In vivo two-photon imaging of K+-evoked capillary RBC flux through cranial window; set-up: species or system C57BL/6J mouse; conditions: 0-mM Ca2+ solution containing 200 μM diltiazem on cranial surface, end of experiment
[5] = target: T1, Kir2.1 channel; assay: Patch-clamp Ba2+-sensitive Kir2.1 current in cECs from transgenic mice; type: cell-based, TgNotch3^WT and TgNotch3^R169C mice; set-up: freshly isolated capillary endothelial cells from TgNotch3^WT and TgNotch3^R169C brains; endogenous in cells; host or cells: freshly isolated brain capillary endothelial cells from TgNotch3^WT and TgNotch3^R169C mice (FVB/N background); conditions: HB-EGF (30 ng/ml, 20 minutes)
[6] = cECs dialyzed with 1 mM Mg-ATP, PKC, PKG, PKA inhibitors
[7] = dialyzed cECs, 1 mM Mg-ATP, 1 μM Gö6976, 10 μM Rp-8-Br-PET-cGMPS, 1 μM H-89
[8] = conventional whole-cell, dialyzed cECs

Molecule: Nc1ccncc1 [4-aminopyridine]
- Arteriolar dilation in response to capillary stimulation with 10 mM K+ ([1]; TgNotch3^R169C CaPA): did not restore arteriolar dilation
- Myogenic tone of arteriolar segment ([1]; TgNotch3^R169C): restores myogenic tone

Molecule: CC(C)Oc1ccc2c(=O)c3cc(C(=O)O)ccc3oc2c1 [AH6809]
- Effect on inhibitory effect of PGE2 on Kir2.1 currents [2]: prevented

Molecule: O=C(O)CN(CC(=O)O)c1ccccc1OCCOc1ccccc1N(CC(=O)O)CC(=O)O [BAPTA, 1,2-bis(2-aminophenoxy)ethane-N,N,N′,N′-tetraacetic acid]
- Effect of simultaneous PKC and IP3R/Ca2+ block on PGE2-mediated suppression of Kir2.1 currents [2]: lack of an effect
- Effect on PGE2-induced reduction of Kir2.1 current ([2]; dialyzed cECs): no effect

Molecule: [Ba+2] [Ba^2+]
- K+-induced upstream vasodilation ([1]; Ba2+, TgNotch3^R169C, Timp3^+/- mice): completely abolished
- Inwardly rectifying Kir2.1 currents, block [2]: abolished
- Effect on CBF responses to whisker stimulation ([3]; 100 μM Ba2+, TgNotch3^R169C mice): had no effect
- Decrease of functional hyperemia ([3]; 100 μM Ba2+, TgNotch3^WT mice): 60%
- HB-EGF-mediated increase in functional hyperemia ([3]; Ba2+ in presence of HB-EGF, CADASIL mice): inhibited

Molecule: Cn1c2ccccc2c2c3c(c4c5ccccc5n(CCC#N)c4c21)CNC3=O [Gö6976, 12-(2-cyanoethyl)-6,7,12,13-tetrahydro-13-methyl-5-oxo-5H-indolo(2,3-a)pyrrolo(3,4-c)-carbazole]
- Effect of simultaneous PKC and IP3R/Ca2+ block on PGE2-mediated suppression of Kir2.1 currents [2]: lack of an effect
- Effect on peak Kir2.1 current densities at -140 mV [2, 6]: absence of an effect
- Effect on PGE2-induced reduction of Kir2.1 current ([2]; dialyzed cECs): no effect
- Effect on Mg-ATP-mediated maintenance of Kir2.1 currents over 15 min [2, 7]: unaltered

Molecule: Cl.Cl.O=S(=O)(NCCNC/C=C/c1ccc(Br)cc1)c1cccc2cnccc12 [H-89 dihydrochloride]
- Effect on peak Kir2.1 current densities at -140 mV [2, 6]: absence of an effect
- Effect on Mg-ATP-mediated maintenance of Kir2.1 currents over 15 min [2, 7]: unaltered

Molecule: Nc1ncnc2c1ncn2[C@@H]1O[C@H](COP(=O)(O)OP(=O)(O)OP(O)(O)=S)[C@@H](O)[C@H]1O [Mg-ATP-γ-S]
- Decline of Kir2.1 currents over 15 min [2, 8]: failed to avert current decay

Molecule: Nc1nc2c(ncn2[C@@H]2O[C@H](COP(=O)(O)OP(=O)(O)OP(=O)(O)O)[C@@H](O)[C@H]2O)c(=O)[nH]1 [Na-GTP]
- Effect on peak Kir2.1 current amplitude or kinetics of current decline ([2]; 100 μM Na-GTP in pipette alone or with 1 mM Mg-ATP): in neither setting did Na-GTP have an effect

Molecule: O=c1c2nc(Br)n([C@@H]3O[C@@H]4CO[P@@](O)(=S)O[C@H]4[C@H]3O)c2nc2[nH]c(-c3ccccc3)cn12 [Rp-8-Br-PET-cGMPS]
- Effect on Mg-ATP-mediated maintenance of Kir2.1 currents over 15 min [2]: unaltered
- Effect on peak Kir2.1 current densities at -140 mV [2]: absence of an effect

Molecule: NC(=O)c1nc(Nc2ccccc2)sc1NC(=O)C1CCCCC1 [UNC3230, 5-[(Cyclohexylcarbonyl)amino]-2-(phenylamino)-thiazolecarboxamide]
- Kir2.1 currents 15 min after PIP2 synthesis inhibitor ([2]; perforated-patch (intact cytoplasm), PIK93 300 nM, phenylarsine oxide 10 μM, UNC3230 100 nM, bath-applied): yielded similar results

Molecule: CCCCCCCC(=O)OCC(COP(=O)(O)OC1C(O)C(O)C(OP(=O)(O)O)C(OP(=O)(O)O)C1O)OC(=O)CCCCCCC (stereo not drawn) [diC8-PIP2, 1,2-Dioctanoyl phosphatidylinositol 4,5-bisphosphate sodium salt]
- Initial Kir2.1 currents (at t0) ([2]; conventional whole-cell, 0 mM Mg-ATP + 10 μM diC8-PIP2 in pipette): did not elevate initial Kir2.1 currents
- Decline of Kir2.1 currents over 15 min [2, 8]: largely abrogated the decline in Kir2.1 currents
- Effect on PGE2-induced reduction of Kir2.1 current ([2]; dialyzed cECs): completely abrogated

Molecule: COc1ccc([C@@H]2Sc3ccccc3N(CCN(C)C)C(=O)[C@@H]2OC(C)=O)cc1 [diltiazem]
- Arteriolar diameter and capillary RBC flux (maximal response) [4]: dramatically dilated arterioles and enhanced capillary RBC flux

Molecule: HB-EGF: heparin-binding epidermal growth factor-like growth factor, EGFR ligand
- Upstream arteriole response to 10 mM K+ on capillaries ([1]; CaPA from endothelial specific Kir2.1^-/- (Kir channel deficient) mice, HB-EGF or soluble PIP2 present): without effect
- Time after restoration of myogenic tone until dilation to capillary K+ appeared ([1]; HB-EGF 30 ng/mL, TgNotch3^R169C CaPA): 17 ± 0.5 min
- Arteriolar dilation in response to capillary stimulation with 10 mM K+ ([1]; TgNotch3^R169C CaPA): gradually increased to the amplitude observed in preparations from the control group
- Myogenic tone of arteriolar segment ([1]; TgNotch3^R169C): also restored myogenic tone
- Arteriolar segment diameter ([1]; bath HB-EGF 30 ng/mL, TgNotch3^R169C CaPA): rapid and sustained constriction
- CBF responses to whisker stimulation ([3]; CADASIL model (TgNotch3^R169C)): restored CBF responses to whisker stimulation in CADASIL model to control levels
- CBF responses to whisker stimulation ([3]; control mice (TgNotch3^WT)): no significant effect
- Kir2.1 current density ([5]; TgNotch3^R169C cECs): restored it
- Kir2.1 current density ([5]; TgNotch3^WT cECs): had no effect

Molecule: SLIGRL-NH2
- Effect on capillary Kir2.1 currents ([2]; perforated patch, 15 min, SLIGRL-NH2 5 μM): had no effect

B1: TIMP3: recombinant soluble TIMP3, matrix metalloproteinase inhibitor (protein, UniProt P35625 24-211, looked up)
Metalloproteinase inhibitor 3: CTCSPSHPQDAFCNSDIVIRAKVVGKKLVKEGPFGTLVYTIKQMKMYRGFTKMPHVQYIHTEASESLCGLKLEVNKYQYLLTGRVYDGKMYTGLCNFVERWDQLTLSQRKGLNYRYHLGCNCKIKSCYYLPCFVTSKNECLWTDMLSNFGYPGYQSKHYACIRQKGGYCSWYRGWAPPDKSIINATDP
- Arteriolar vasodilation induced by capillary stimulation with 10 mM K+ ([1]; TgNotch3^WT CaPA, bath 8 nM soluble recombinant TIMP3): gradually attenuated and, ultimately, abolished
